{"source": "patent US20030008358A1", "about": "“Method of producing L-serine by fermentation” (AJINOMOTO CO. INC, priority 1998, published 2003)", "key": {"[1]": {"test_system": "Brevibacterium flavum AJ13325", "experiment": "Growth of β-(2-thienyl)-DL-alanine resistant strains in the presence of β-(2-thienyl)-DL-alanine", "format": "cell-based", "details": "0.25 g/L of β-(2-thienyl)-DL-alanine", "description": "Similarly, the term “β-(2-thienyl)-DL-alanine resistance” refers to the property that a bacterium grows faster than the wild type in a medium containing β-(2-thienyl)-DL-alanine. For example, those strains that form colonies on a solid medium containing 0.25 g/L of β-(2-thienyl)-DL-alanine at 30° C. within 4 to 5 days are said to have β-(2-thienyl)-DL-alanine resistance.\nTo select B-(2-thienyl)-DL-alanine resistant strains from NG treated strains using Brevibacterium flavum AJ13377 as a parent strain, Brevibacterium flavum AJ13377 cells were NG treated and washed before their inoculation on a minimal medium for selection. The minimal medium for selection was a medium that contained 20 g of glucose, 1 g of ammonium sulfate, 1 g of potassium dihydrogen phosphate, 2.5 g of urea, 0.4 g of magnesium sulfate heptahydrate, 0.01 g of iron (II) sulfate heptahydrate, 0.01 g of manganese sulfate tetra- to pentahydrate, 50 μg of biotin, 200 μg of thiamin hydrochloride, 200 μg of nicotinic acid amide, and 250 mg of β-(2-thienyl)-DL-alanine per liter of distilled water. The NG treated mutant was incubated in the above-described medium at 30° C. for 5 to 10 days. The cell culture thus obtained was spread on a bouillon agar medium and incubated at 30° C. for 24 hours for colony formation. β-(2-Thienyl)-DL-alanine resistant strains were obtained from the strains that formed colonies. […]"}, "[2]": {"test_system": "3-PGDH derived from AJ13327 strain", "experiment": "Feedback inhibition of 3-PGDH from AJ13327 by L-serine", "format": "biochemical, Brevibacterium flavum", "description": "(§1) The activity of 3-PGDH can be determined, for example, by the measurement of a decrease in coenzyme NADH2 in a reverse reaction (E. Sugimoto and L. I. Pizer, JBC, 243, 2081, 1968) or synthesis of coenzyme NADH2 in a forward reaction (Salach H. J. Method in Enzymology, vol.9, 216-220, 1966) by absorbance at 340 nm.\n(§2) Brevibacterium flavum AJ13324, AJ13325 and AJ13327 were each incubated on a bouillon agar medium at 30° C. for 24 hours and a loopful of each microorganism was inoculated in a 500 ml shaking flask containing 50 ml of a fermentation medium having the composition shown in Table 2. As a control, the parent strains Brevibacterium flavum ATCC 14067 and AJ13377 were inoculated as a same manner as described above. The medium for inoculation was adjusted to pH 5.5 with sodium hydroxide and autoclaved at 115° C. for 15 minutes.\nAfter collecting cells from the culture broth of each strain, the cells were washed twice with physiological saline and suspended in 50 mM sodium phosphate buffer (pH 7.0) containing 2 mM dithiothreitol. After ice cooling, the suspension was subjected to a sonicator to fragment the cells and the resulting liquid was ultracentrifuged. The ultracentrifugaton was run at 45,000 rpm for 1 hour to obtain a crude enzyme solution.\n(§3) The enzyme activity of 3-PGDH was measured by the method of Salach H. J. et al. (Method in Enzymology, vol 9, 216-220 (1966)).\n[…] Then, 0.2 ml of the crude enzyme solution was added and the temperature was kept the same for 5 minutes. Thereafter, 0.5 ml of 0.1 M 3-PGA (3-phosphoglycerate disodium salt, pH 7, NaOH) was added. After stirring, the absorbance at 340 nm of the reaction mixture was measured for 30 seconds. The reaction was carried out at 25° C.\nFor the measurement of activity, Hitachi U-2000A spectrophotometer was used."}, "[3]": {"test_system": "3-PGDH derived from ATCC14067 strain (wild type)", "experiment": "Feedback inhibition of wild type 3-PGDH by L-serine", "format": "biochemical, Brevibacterium flavum", "details": "wild type coryneform bacterium 3-PGDH; 10 mM L-serine", "description": "as §1\nas §2, with “minutes. […]” for “minutes.”\nas §3\n(§4) More specifically, 0.4 ml of 0.015 M NAD, 0.12 ml of 0.25 M EDTA (pH 9, NaOH), 0.1 ml of 0.05 M glutathione (pH 6, KOH), 0.5 ml of 1 M hydrazine (pH 9, acetate), 0.6 ml of 1 M Tris (pH 9, HCl), a suitable concentration of L-serine (0 to 40 mM), and water to make 2.3 ml, warmed to 25° C. in advance, were added. […] After stirring, the absorbance at 340 nm of the reaction mixture was measured for 30 seconds. […]"}, "[4]": {"test_system": "3-PGDH derived from AJ13377 strain", "experiment": "Feedback inhibition of 3-PGDH from AJ13377 by L-serine", "format": "biochemical, Brevibacterium flavum", "details": "crude enzyme solution; compared with wild type strain ATCC 14067; FIG. 1", "description": "as §1\nas §2, with “minutes. […]” for “minutes.”\nas §3, §4"}, "[5]": {"test_system": "3-PGDH derived from AJ13324 strain", "experiment": "Feedback inhibition of 3-PGDH from AJ13324 by L-serine", "format": "biochemical, Brevibacterium flavum", "details": "crude enzyme solution; FIG. 1", "description": "as §1\nas §2, with “minutes. […]” for “minutes.”\nas §3, §4"}, "[6]": {"test_system": "Brevibacterium flavum AJ13324 and AJ13327", "experiment": "Growth of azaserine resistant strains in the presence of azaserine", "format": "cell-based", "details": "0.25 g/L of azaserine", "description": "The term “azaserine resistance” refers to the property that a bacterium grows faster than the wild type in a medium containing azaserine. For example, those strains that form colonies on a solid medium containing 0.25 g/L of azaserine at 30° C. within 4 to 5 days are said to have azaserine resistance.\nTo select azaserine resistant strains from NG treated strains using Brevibacterium flavum AJ13377 as a parent strain, NG treated Brevibacterium flavum AJ13377 cells after washed were inoculated on a minimal medium for selection. The minimal medium for selection was a medium that contained 20 g of glucose, 1 g of ammonium sulfate, 1 g of potassium dihydrogen phosphate, 2.5 g of urea, 0.4 g of magnesium sulfate heptahydrate, 0.01 g of iron (II) sulfate heptahydrate, 0.01 g of manganese sulfate tetra- to pentahydrate, 50 μg of biotin, 200 μg of thiamin hydrochloride, 200 μg of nicotinic acid amide, and 250 mg of azaserine per liter of distilled water. The NG treated mutant was incubated in the above-described medium at 30° C. for 5 to 10 days. The cell culture thus obtained was spread on a bouillon agar medium and incubated at 30° C. for 24 hours for colony formation. Azaserine resistant strains were obtained from the strains that formed colonies. The mutants thus obtained included many strains that accumulated L-serine in considerable amounts at high yields. […]"}}}
{"smiles": "NC(Cc1cccs1)C(=O)O", "note": "(racemic) [β-(2-thienyl)-DL-alanine]", "values": [{"measurement": "growth in the presence of β-(2-thienyl)-DL-alanine", "setting": "[1]", "result": "able to grow"}]}
{"smiles": "N[C@@H](CO)C(=O)O", "note": "[L-serine]", "values": [{"measurement": "3-PGDH activity retained in the presence of L-serine (relative to absence of L-serine)", "setting": "[2]; 80 mM L-serine", "result": "~100", "unit": "%"}, {"measurement": "feedback inhibition of 3-PGDH by L-serine", "setting": "[2]; 80 mM L-serine, FIG. 1", "result": "completely desensitized"}, {"measurement": "L-serine sensitivity of 3-PGDH", "setting": "[2]; crude enzyme solution, FIG. 1", "result": "relieved of L-serine sensitivity greatly"}, {"measurement": "3-PGDH activity in the presence of L-serine", "setting": "[3]", "result": "almost completely inhibited"}, {"measurement": "L-serine sensitivity of 3-PGDH", "setting": "[4]", "result": "relieved of L-serine sensitivity"}, {"measurement": "L-serine sensitivity of 3-PGDH", "setting": "[5]", "result": "more relieved of L-serine sensitivity"}]}
{"smiles": "[N-]=[N+]=CC(=O)OC[C@H](N)C(=O)O", "note": "[azaserine]", "values": [{"measurement": "growth in the presence of azaserine", "setting": "[6]", "result": "able to grow"}]}
